The NIST ThermoML archive (doi:10.1021/acs.jced.9b00415)

Test: xn = mol fraction of the nth substance listed
Settings: 102 kPa, Liquid; for viscosity: Concentric cylinders viscometry; for mass density: Vibrating tube method

CCCCn1cc[n+](C)c1.O=[N+]([O-])[O-] [1-butyl-3-methylimidazolium nitrate] + CCCCn1cc[n+](C)c1.[Cl-]
Settings | mass density [kg/m3] | viscosity [mPa·s]
298.15 K, x1 = 0.8 | 1139.9 | 373.6
303.15 K, x1 = 0.8 | 1136.8 | 266.4
308.15 K, x1 = 0.8 | 1133.7 | 194.9
313.15 K, x1 = 0.5 | 1109.6 | 365.1
313.15 K, x1 = 0.6 | 1116.9 | 275.4
313.15 K, x1 = 0.8 | 1130.6 | 146
318.15 K, x1 = 0.2 | – | 721.3
318.15 K, x1 = 0.5 | 1106.6 | 262.7
318.15 K, x1 = 0.6 | 1113.9 | 201.5
318.15 K, x1 = 0.8 | 1127.6 | 111.7
323.15 K, x1 = 0.2 | – | 495.6
323.15 K, x1 = 0.4 | 1097.9 | 259.8
323.15 K, x1 = 0.5 | 1103.7 | 193.7
323.15 K, x1 = 0.6 | 1110.9 | 150.8
323.15 K, x1 = 0.8 | 1124.6 | 87.1
328.15 K, x1 = 0.2 | 1080.2 | 349.9
328.15 K, x1 = 0.4 | 1095 | 191.3
328.15 K, x1 = 0.5 | 1100.8 | 145.9
328.15 K, x1 = 0.6 | 1107.9 | 115.2
328.15 K, x1 = 0.8 | 1121.6 | 69.09
333.15 K, x1 = 0.1 | 1070.3 | 378.4
333.15 K, x1 = 0.2 | 1077.3 | 253.4
333.15 K, x1 = 0.4 | 1092 | 144
333.15 K, x1 = 0.5 | 1097.9 | 112
333.15 K, x1 = 0.6 | 1104.9 | 89.66
333.15 K, x1 = 0.8 | 1118.6 | 55.68
338.15 K, x1 = 0.1 | 1067.5 | 271.8
338.15 K, x1 = 0.2 | 1074.4 | 187.6
338.15 K, x1 = 0.4 | 1089.1 | 110.6
338.15 K, x1 = 0.5 | 1095 | 87.65
338.15 K, x1 = 0.6 | 1101.9 | 71.02
338.15 K, x1 = 0.8 | 1115.7 | 45.53
343.15 K, x1 = 0.1 | 1064.8 | 199.9
343.15 K, x1 = 0.2 | 1071.6 | 141.9
343.15 K, x1 = 0.4 | 1086.2 | 86.47
343.15 K, x1 = 0.5 | 1092.1 | 69.7
343.15 K, x1 = 0.6 | 1099 | 57.14
343.15 K, x1 = 0.8 | 1112.7 | 37.72
348.15 K, x1 = 0.1 | 1062.1 | 150.1
348.15 K, x1 = 0.2 | 1068.8 | 109.3
348.15 K, x1 = 0.4 | 1083.3 | 68.73
348.15 K, x1 = 0.5 | 1089.2 | 56.25
348.15 K, x1 = 0.6 | 1096.1 | 46.63
348.15 K, x1 = 0.8 | 1109.7 | 31.62
353.15 K, x1 = 0.1 | 1059.3 | 115
353.15 K, x1 = 0.2 | 1065.9 | 85.68
353.15 K, x1 = 0.4 | 1080.5 | 55.46
353.15 K, x1 = 0.5 | 1086.4 | 46.03
353.15 K, x1 = 0.6 | 1093.2 | 38.55
353.15 K, x1 = 0.8 | 1106.8 | 26.81
358.15 K, x1 = 0.1 | 1056.6 | 89.62
358.15 K, x1 = 0.2 | 1063.1 | 68.25
358.15 K, x1 = 0.4 | 1077.6 | 45.37
358.15 K, x1 = 0.5 | 1083.5 | 38.16
358.15 K, x1 = 0.6 | 1090.3 | 32.27
358.15 K, x1 = 0.8 | 1103.8 | 22.96
363.15 K, x1 = 0.1 | 1053.8 | 71.03
363.15 K, x1 = 0.2 | 1060.4 | 55.17
363.15 K, x1 = 0.4 | 1074.8 | 37.6
363.15 K, x1 = 0.5 | 1080.6 | 32.02
363.15 K, x1 = 0.6 | 1087.4 | 27.32
363.15 K, x1 = 0.8 | 1100.9 | 19.87

CCCCn1cc[n+](C)c1.CS(=O)(=O)[O-] [1-butyl-3-methylimidazolium methanesulfonate] + CCCCn1cc[n+](C)c1.[Cl-]
Settings | mass density [kg/m3] | viscosity [mPa·s]
323.15 K, x1 = 0.3 | 1098.9 | 388.2
323.15 K, x1 = 0.4 | 1106.3 | 365.5
323.15 K, x1 = 0.5 | 1116.6 | 267.1
328.15 K, x1 = 0.1 | 1076.7 | 490.5
328.15 K, x1 = 0.2 | 1086.1 | 428.3
328.15 K, x1 = 0.3 | 1096.1 | 278.2
328.15 K, x1 = 0.4 | 1103.4 | 261.8
328.15 K, x1 = 0.5 | 1113.7 | 195.6
333.15 K, x1 = 0.1 | 1074 | 346.3
333.15 K, x1 = 0.2 | 1083.4 | 304.6
333.15 K, x1 = 0.3 | 1093.3 | 204.2
333.15 K, x1 = 0.4 | 1100.6 | 192.2
333.15 K, x1 = 0.5 | 1110.9 | 146.5
333.15 K, x1 = 0.6 | 1119.1 | 128
338.15 K, x1 = 0.1 | 1071.4 | 250.7
338.15 K, x1 = 0.2 | 1080.7 | 222
338.15 K, x1 = 0.3 | 1090.6 | 153.2
338.15 K, x1 = 0.4 | 1097.9 | 144.3
338.15 K, x1 = 0.5 | 1108.1 | 112.1
338.15 K, x1 = 0.6 | 1116.3 | 98.76
338.15 K, x1 = 0.7 | 1124.3 | 82.97
343.15 K, x1 = 0.1 | 1068.7 | 185.6
343.15 K, x1 = 0.2 | 1078 | 165.4
343.15 K, x1 = 0.3 | 1087.9 | 117.2
343.15 K, x1 = 0.4 | 1095.2 | 110.5
343.15 K, x1 = 0.5 | 1105.3 | 87.31
343.15 K, x1 = 0.6 | 1113.5 | 77.62
343.15 K, x1 = 0.7 | 1121.5 | 65.89
343.15 K, x1 = 0.8 | 1129.7 | 56.84
348.15 K, x1 = 0.1 | 1066.1 | 140.3
348.15 K, x1 = 0.2 | 1075.4 | 125.8
348.15 K, x1 = 0.3 | 1085.2 | 91.36
348.15 K, x1 = 0.4 | 1092.5 | 86.21
348.15 K, x1 = 0.5 | 1102.6 | 69.19
348.15 K, x1 = 0.6 | 1110.7 | 62.01
348.15 K, x1 = 0.7 | 1118.6 | 53.15
348.15 K, x1 = 0.8 | 1126.8 | 46.31
348.15 K, x1 = 0.9 | 1134.4 | 39.65
353.15 K, x1 = 0.1 | 1063.5 | 108.1
353.15 K, x1 = 0.2 | 1072.8 | 97.5
353.15 K, x1 = 0.3 | 1082.5 | 72.39
353.15 K, x1 = 0.4 | 1089.7 | 68.4
353.15 K, x1 = 0.5 | 1099.8 | 55.7
353.15 K, x1 = 0.6 | 1107.9 | 50.28
353.15 K, x1 = 0.7 | 1115.7 | 43.48
353.15 K, x1 = 0.8 | 1123.9 | 38.24
353.15 K, x1 = 0.9 | 1131.4 | 33.04
358.15 K, x1 = 0.1 | 1060.9 | 84.67
358.15 K, x1 = 0.2 | 1070.1 | 76.85
358.15 K, x1 = 0.3 | 1079.8 | 58.23
358.15 K, x1 = 0.4 | 1086.9 | 55.11
358.15 K, x1 = 0.5 | 1097 | 45.47
358.15 K, x1 = 0.6 | 1105 | 41.33
358.15 K, x1 = 0.7 | 1112.8 | 36.03
358.15 K, x1 = 0.8 | 1120.9 | 31.96
358.15 K, x1 = 0.9 | 1128.4 | 27.85
363.15 K, x1 = 0.1 | 1058.2 | 67.42
363.15 K, x1 = 0.2 | 1067.3 | 61.54
363.15 K, x1 = 0.3 | 1077 | 47.51
363.15 K, x1 = 0.4 | 1084.1 | 45.04
363.15 K, x1 = 0.5 | 1094.1 | 37.62
363.15 K, x1 = 0.6 | 1102.1 | 34.41
363.15 K, x1 = 0.7 | 1109.9 | 30.22
363.15 K, x1 = 0.8 | 1117.9 | 27.02
363.15 K, x1 = 0.9 | 1125.3 | 23.72
